# Laboratory results taken from PubChem BioAssay (NCI).
#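 Protocol summary: plate cells (96-well), add compound at 5 concentrations, incubate 48 h, interpolate endpoints linearly. At the TGI there is no net growth.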
# Test system: KM12 colon
# Assay: NCI tumour cell line growth inhibition, 48 h
row,Compound,TGI [µM]
1,COC(=O)c1cc(C)ccc1CC(Cc1ccc(C)cc1)C(=O)OC (stereo not given),> 100
2,Nc1nc(N)nc(CCCc2nc(N)nc(N)n2)n1,> 100
3,COC(=O)C1(Cc2ccc3c(c2)CCC3)Cc2cc3c(cc2C1)CCC3,> 100
4,Cc1cc(/N=C/c2ccc(C#N)cc2)n(-c2ccccc2)n1,> 100
5,COc1cc(OCc2ccc3nc(OC)c(OC)nc3c2)cc(OC)c1OC,> 10
6,CCCOC(=O)NC(C)C(=O)NC(CCC(=O)NC(CCCC(N)C(=O)O)C(=O)NC(C)C(=O)O)C(=O)O (stereo not given),27.4
7,COC(=O)C1(Cc2ccc3c(c2)CCC3)Cc2ccccc2C1=O (stereo not given),20.3

# Test system: HCT-116 colon
# Assay: NCI tumour cell line growth inhibition, 48 h
row,Compound,TGI [µM]
1,COC(=O)c1cc(C)ccc1CC(Cc1ccc(C)cc1)C(=O)OC (stereo not given),> 100
2,Nc1nc(N)nc(CCCc2nc(N)nc(N)n2)n1,> 100
3,COC(=O)C1(Cc2ccc3c(c2)CCC3)Cc2cc3c(cc2C1)CCC3,> 100
4,Cc1cc(/N=C/c2ccc(C#N)cc2)n(-c2ccccc2)n1,> 100
5,COc1cc(OCc2ccc3nc(OC)c(OC)nc3c2)cc(OC)c1OC,> 10
6,CCCOC(=O)NC(C)C(=O)NC(CCC(=O)NC(CCCC(N)C(=O)O)C(=O)NC(C)C(=O)O)C(=O)O (stereo not given),> 100
7,COC(=O)C1(Cc2ccc3c(c2)CCC3)Cc2ccccc2C1=O (stereo not given),46.6

# Test system: MALME-3M melanoma
# Assay: NCI tumour cell line growth inhibition, 48 h
row,Compound,TGI [µM]
1,COC(=O)c1cc(C)ccc1CC(Cc1ccc(C)cc1)C(=O)OC (stereo not given),95.5
2,Nc1nc(N)nc(CCCc2nc(N)nc(N)n2)n1,> 100
3,Cc1cc(/N=C/c2ccc(C#N)cc2)n(-c2ccccc2)n1,> 100
4,COc1cc(OCc2ccc3nc(OC)c(OC)nc3c2)cc(OC)c1OC,> 10
5,COC(=O)C1(Cc2ccc3c(c2)CCC3)Cc2ccccc2C1=O (stereo not given),> 100

# Test system: SK-MEL-2 melanoma
# Assay: NCI tumour cell line growth inhibition, 48 h
row,Compound,TGI [µM]
1,COC(=O)c1cc(C)ccc1CC(Cc1ccc(C)cc1)C(=O)OC (stereo not given),> 90.3
2,Nc1nc(N)nc(CCCc2nc(N)nc(N)n2)n1,> 100
3,COC(=O)C1(Cc2ccc3c(c2)CCC3)Cc2cc3c(cc2C1)CCC3,49.3
4,Cc1cc(/N=C/c2ccc(C#N)cc2)n(-c2ccccc2)n1,> 100
5,COc1cc(OCc2ccc3nc(OC)c(OC)nc3c2)cc(OC)c1OC,> 2.29
6,CCCOC(=O)NC(C)C(=O)NC(CCC(=O)NC(CCCC(N)C(=O)O)C(=O)NC(C)C(=O)O)C(=O)O (stereo not given),> 100
7,COC(=O)C1(Cc2ccc3c(c2)CCC3)Cc2ccccc2C1=O (stereo not given),38.7

# Test system: CAKI-1 renal
# Assay: NCI tumour cell line growth inhibition, 48 h
row,Compound,TGI [µM]
1,COC(=O)c1cc(C)ccc1CC(Cc1ccc(C)cc1)C(=O)OC (stereo not given),> 100
2,Nc1nc(N)nc(CCCc2nc(N)nc(N)n2)n1,> 100
3,Cc1cc(/N=C/c2ccc(C#N)cc2)n(-c2ccccc2)n1,> 100
4,COc1cc(OCc2ccc3nc(OC)c(OC)nc3c2)cc(OC)c1OC,> 10
5,CCCOC(=O)NC(C)C(=O)NC(CCC(=O)NC(CCCC(N)C(=O)O)C(=O)NC(C)C(=O)O)C(=O)O (stereo not given),40.7
6,COC(=O)C1(Cc2ccc3c(c2)CCC3)Cc2ccccc2C1=O (stereo not given),> 100

# Test system: HOP-92 NSCLC
# Assay: NCI tumour cell line growth inhibition, 48 h
row,Compound,TGI [µM]
1,COC(=O)c1cc(C)ccc1CC(Cc1ccc(C)cc1)C(=O)OC (stereo not given),60.2
2,Nc1nc(N)nc(CCCc2nc(N)nc(N)n2)n1,> 100
3,COC(=O)C1(Cc2ccc3c(c2)CCC3)Cc2cc3c(cc2C1)CCC3,> 100
4,Cc1cc(/N=C/c2ccc(C#N)cc2)n(-c2ccccc2)n1,> 100
5,COc1cc(OCc2ccc3nc(OC)c(OC)nc3c2)cc(OC)c1OC,> 10
6,CCCOC(=O)NC(C)C(=O)NC(CCC(=O)NC(CCCC(N)C(=O)O)C(=O)NC(C)C(=O)O)C(=O)O (stereo not given),77.4

# Test system: OVCAR-5 ovarian
# Assay: NCI tumour cell line growth inhibition, 48 h
row,Compound,TGI [µM]
1,COC(=O)c1cc(C)ccc1CC(Cc1ccc(C)cc1)C(=O)OC (stereo not given),> 85.4
2,Nc1nc(N)nc(CCCc2nc(N)nc(N)n2)n1,> 100
3,COC(=O)C1(Cc2ccc3c(c2)CCC3)Cc2cc3c(cc2C1)CCC3,> 100
4,Cc1cc(/N=C/c2ccc(C#N)cc2)n(-c2ccccc2)n1,> 100
5,COc1cc(OCc2ccc3nc(OC)c(OC)nc3c2)cc(OC)c1OC,> 10
6,CCCOC(=O)NC(C)C(=O)NC(CCC(=O)NC(CCCC(N)C(=O)O)C(=O)NC(C)C(=O)O)C(=O)O (stereo not given),> 100
7,COC(=O)C1(Cc2ccc3c(c2)CCC3)Cc2ccccc2C1=O (stereo not given),> 100

# Test system: NCI-H522 lung
# Assay: NCI tumour cell line growth inhibition, 48 h
row,Compound,TGI [µM]
1,COC(=O)c1cc(C)ccc1CC(Cc1ccc(C)cc1)C(=O)OC (stereo not given),> 100
2,Nc1nc(N)nc(CCCc2nc(N)nc(N)n2)n1,> 100
3,COC(=O)C1(Cc2ccc3c(c2)CCC3)Cc2cc3c(cc2C1)CCC3,56.5
4,Cc1cc(/N=C/c2ccc(C#N)cc2)n(-c2ccccc2)n1,> 100
5,COc1cc(OCc2ccc3nc(OC)c(OC)nc3c2)cc(OC)c1OC,> 10
